Reference: US8901118B2, “Compounds and methods for kinase modulation, and indications therefor” (Plexxikon Inc., priority 2010, dated 2014)

Columns and labels:
[1] = molecular target: c-Kit kinase (Homo sapiens, UniProt P10721); experiment: c-Kit kinase biochemical activity assay (AlphaScreen, biotin-(E4Y)10 phosphorylation); details: 100 μM ATP; read-out: Biochemical Inhibition IC50 Kit
In short: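 Phosphorylation of 30 nM biotin-(E4Y)10 by c-Kit (0.75 ng per reaction) with 100 µM ATP in HEPES pH 7.5 buffer with Mg2+/Mn2+, 5% DMSO, 1 h at room temperature; 8-point 1:2 compound dilutions. AlphaScreen detection with streptavidin donor and PY20 acceptor beads after EDTA stop. IC50 from signal versus concentration.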

[2] = molecular target: T1, BCR-FMS BaF3 cells (Homo sapiens, UniProt P07333); experiment: BaF3 BCR-FMS cell proliferation assay (ATPlite); type: cell-based; details: read-out: Inhibition of Cell Proliferation IC50, BCR/BaF3 Fms
T1 construct: fused on or other part: P11274 (Breakpoint cluster region protein)
T1 sequence (P07333 582-910): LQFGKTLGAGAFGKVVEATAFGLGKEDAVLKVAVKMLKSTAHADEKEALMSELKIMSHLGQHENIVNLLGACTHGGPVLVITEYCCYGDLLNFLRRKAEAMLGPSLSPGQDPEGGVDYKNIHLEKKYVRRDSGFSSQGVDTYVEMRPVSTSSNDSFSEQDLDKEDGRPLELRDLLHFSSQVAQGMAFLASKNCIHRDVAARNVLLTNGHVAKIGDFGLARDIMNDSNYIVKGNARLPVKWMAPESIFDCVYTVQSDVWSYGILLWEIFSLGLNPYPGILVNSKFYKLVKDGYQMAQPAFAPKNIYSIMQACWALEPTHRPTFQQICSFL
In short: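 ATP-based luminescence (ATPlite), read after 10 min at room temperature, served as a proxy for cell number, and IC50 was fitted against compound concentration. Before that, cells were treated for 3 days with an 8-point 1:3 dilution series starting at 10 μM. BaF3 cells were plated at 10,000/well without IL-3, and MV-4-11 cells at 25,000/well.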

Sequence of c-Kit kinase (P10721 26-976): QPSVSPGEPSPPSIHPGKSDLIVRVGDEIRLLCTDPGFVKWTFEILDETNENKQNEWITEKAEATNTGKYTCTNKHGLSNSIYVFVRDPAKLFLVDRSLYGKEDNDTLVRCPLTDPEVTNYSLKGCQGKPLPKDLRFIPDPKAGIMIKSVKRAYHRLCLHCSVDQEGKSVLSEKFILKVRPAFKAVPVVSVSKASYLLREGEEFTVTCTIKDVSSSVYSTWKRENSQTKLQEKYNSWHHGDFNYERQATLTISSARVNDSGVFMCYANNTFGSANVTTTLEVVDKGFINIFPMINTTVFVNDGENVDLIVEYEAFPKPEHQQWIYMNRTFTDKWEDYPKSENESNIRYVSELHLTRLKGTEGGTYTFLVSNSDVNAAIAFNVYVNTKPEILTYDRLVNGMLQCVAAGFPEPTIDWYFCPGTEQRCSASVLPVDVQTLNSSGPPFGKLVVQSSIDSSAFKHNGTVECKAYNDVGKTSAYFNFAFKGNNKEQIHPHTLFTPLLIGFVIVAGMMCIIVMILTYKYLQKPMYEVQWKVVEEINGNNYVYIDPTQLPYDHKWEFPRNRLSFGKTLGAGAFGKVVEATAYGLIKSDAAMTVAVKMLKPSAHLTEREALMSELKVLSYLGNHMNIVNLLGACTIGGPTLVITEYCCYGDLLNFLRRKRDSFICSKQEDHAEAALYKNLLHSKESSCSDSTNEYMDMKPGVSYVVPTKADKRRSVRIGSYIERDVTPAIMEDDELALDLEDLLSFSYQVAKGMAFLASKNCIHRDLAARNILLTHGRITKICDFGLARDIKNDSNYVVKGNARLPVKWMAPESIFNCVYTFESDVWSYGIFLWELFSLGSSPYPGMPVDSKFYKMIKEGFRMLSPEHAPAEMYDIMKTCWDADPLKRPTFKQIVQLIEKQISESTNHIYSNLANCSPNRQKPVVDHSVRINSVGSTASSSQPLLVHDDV

## CCOc1ncnc2[nH]cc(Cc3ccc(Nc4cnn(CC)c4)nc3F)c12 [Compound P-4012, [5-(4-Ethoxy-7H-pyrrolo[2,3-d]pyrimidin-5-ylmethyl)-6-fluoro-pyridin-2-yl]-(1-ethyl-1H-pyrazol-4-yl)-amine]
[1]
  IC50: < 1000 nM
[2]
  IC50: < 10 nM

## Cc1cnc2[nH]cc(Cc3cnc(Nc4ccc(C(C)(C)C)cc4)nc3)c2c1 [Compound P-3030, (4-tert-Butyl-phenyl)-[5-(5-methyl-1H-pyrrolo[2,3-b]pyridin-3-ylmethyl)-pyrimidin-2-yl]-amine amine]
[1]
  IC50: < 100 nM
[2]
  IC50: < 10 nM

## CCOc1ccc(Nc2ccc(C(=O)c3c[nH]c4ncnc(C5CC5)c34)c(F)n2)cn1 [Compound P-4027, (4-Cyclopropyl-7H-pyrrolo[2,3-d]pyrimidin-5-yl)-[6-(6-ethoxy-pyridin-3-ylamino)-2-fluoro-pyridin-3-yl]-methanone]
[1]
  IC50: < 100 nM
[2]
  IC50: < 100 nM

## Cc1cnc2[nH]cc(C(=O)c3ccc(Nc4ccc(C)nc4)nc3F)c2c1 [Compound P-3043, [2-Fluoro-6-(6-methyl-pyridin-3-ylamino)-pyridin-3-yl]-(5-methyl-1H-pyrrolo[2,3-b]pyridin-3-yl)-methanone]
[1]
  IC50: < 1000 nM
[2]
  IC50: < 100 nM

## COc1ccc(Nc2ccc(Cc3c[nH]c4ncnc(C5CC5)c34)c(F)n2)cn1 [Compound P-4023, [5-(4-cyclopropyl-7H-pyrrolo[2,3-d]pyrimidin-5-ylmethyl)-6-fluoro-pyridin-2-yl]-(6-methoxy-pyridin-3-yl)-amine]
[1]
  IC50: < 1000 nM
[2]
  IC50: < 10 nM

## CCn1cc(Nc2ccc(Cc3c[nH]c4ncnc(C)c34)c(F)n2)cn1 [Compound P-4013, (1-Ethyl-1H-pyrazol-4-yl)-[6-fluoro-5-(4-methyl-7H-pyrrolo[2,3-d]pyrimidin-5-ylmethyl)-pyridin-2-yl]-amine]
[1]
  IC50: < 1000 nM
[2]
  IC50: < 10 nM

## Fc1nc(NC2CCC(F)(F)CC2)ccc1Cc1c[nH]c2ncnc(NCC(F)(F)F)c12 [Compound P-4128, 5-[[6-[(4,4-difluorocyclohexyl)amino]-2-fluoro-3-pyridyl]methyl]-N-(2,2,2-trifluoroethyl)-7H-pyrrolo[2,3-d]pyrimidin-4-amine]
[1]
  IC50: > 1000 nM
[2]
  IC50: < 100 nM

## O=C(c1ccc(Nc2ccc(C3CC3)nc2)nc1F)c1c[nH]c2ncccc12 [Compound P-3052, [6-(6-Cyclopropyl-pyridin-3-ylamino)-2-fluoro-pyridin-3-yl]-(1H-pyrrolo[2,3-b]pyridin-3-yl)-methanone]
[1]
  IC50: < 100 nM
[2]
  IC50: < 100 nM

## CCOc1ccc(Nc2ccc(C(=O)c3c[nH]c4ncnc(C)c34)c(F)n2)cn1 [Compound P-4032, [6-(6-Ethoxy-pyridin-3-ylamino)-2-fluoro-pyridin-3-yl]-(4-methyl-7H-pyrrolo[2,3-d]pyrimidin-5-yl)-methanone]
[1]
  IC50: < 100 nM
[2]
  IC50: < 100 nM

## Cc1cncc(Nc2ccc(Cc3c[nH]c4ncnc(C5CC5)c34)c(F)n2)c1 [Compound P-4038, [5-(4-Cyclopropyl-7H-pyrrolo[2,3-d]pyrimidin-5-ylmethyl)-6-fluoro-pyridin-2-yl]-(5-methyl-pyridin-3-yl)-amine]
[1]
  IC50: < 1000 nM
[2]
  IC50: < 100 nM

## COCCOc1ncnc2[nH]cc(Cc3ccc(Nc4ccc(OC)nc4)nc3F)c12 [Compound P-4019, {6-Fluoro-5-[4-(2-methoxy-ethoxy)-7H-pyrrolo[2,3-d]pyrimidin-5-ylmethyl]-pyridin-2-yl}-(6-methoxy-pyridin-3-yl)-amine]
[1]
  IC50: < 1000 nM
[2]
  IC50: < 10 nM

## COc1ccc(Nc2ncc(Cc3c[nH]c4ncc(C)cc34)cn2)cc1F [Compound P-3023, (3-Fluoro-4-methoxy-phenyl)-[5-(5-methyl-1H-pyrrolo[2,3-b]pyridin-3-ylmethyl)-pyrimidin-2-yl]-amine]
[1]
  IC50: < 100 nM
[2]
  IC50: < 100 nM

## Clc1cnc2[nH]cc(Cc3cnc(NC4CC4)nc3)c2c1 [Compound P-3005, [5-(5-Chloro-1H-pyrrolo[2,3-b]pyridin-3-ylmethyl)-pyrimidin-2-yl]-cyclopropyl-amine]
[1]
  IC50: > 1000 nM
[2]
  IC50: < 1000 nM

## Cc1cnc2[nH]cc(Cc3cnc(Nc4ccc(C(O)(C(F)(F)F)C(F)(F)F)cc4)nc3)c2c1 [Compound P-3031, 1,1,1,3,3,3-Hexafluoro-2-{4-[5-(5-methyl-1H-pyrrolo[2,3-b]pyridin-3-ylmethyl)-pyrimidin-2-ylamino]-phenyl}-propan-2-ol]
[1]
  IC50: < 100 nM
[2]
  IC50: < 10 nM

## COc1ncnc2[nH]cc(Cc3ccc(Nc4ccc(Cl)nc4)nc3F)c12 [Compound P-4003, (6-Chloro-pyridin-3-yl)-[6-fluoro-5-(4-methoxy-7H-pyrrolo[2,3-d]pyrimidin-5-ylmethyl)-pyridin-2-yl]-amine]
[1]
  IC50: < 1000 nM
[2]
  IC50: < 100 nM

## CCc1ccc(Nc2ccc(Cc3c[nH]c4ncc(C)cc34)c(F)n2)cn1 [Compound P-3048, (6-Ethyl-pyridin-3-yl)-[6-fluoro-5-(5-methyl-1H-pyrrolo[2,3-b]pyridin-3-ylmethyl)-pyridin-2-yl]-amine]
[1]
  IC50: < 100 nM
[2]
  IC50: < 10 nM

## CCOc1ncnc2[nH]cc(Cc3ccc(Nc4ccc(C)nc4)nc3F)c12 [Compound P-4017, [5-(4-Ethoxy-7H-pyrrolo[2,3-d]pyrimidin-5-ylmethyl)-6-fluoro-pyridin-2-yl]-(6-methyl-pyridin-3-yl)-amine]
[1]
  IC50: < 100 nM
[2]
  IC50: < 10 nM

## CCOc1ccc(Nc2ncc(Cc3c[nH]c4ncc(C)cc34)cn2)cc1 [Compound P-3026, (4-Ethoxy-phenyl)-[5-(5-methyl-1H-pyrrolo[2,3-b]pyridin-3-ylmethyl)-pyrimidin-2-yl]-amine]
[1]
  IC50: < 10 nM
[2]
  IC50: < 10 nM

## COc1ccc(Nc2ncc(Cc3c[nH]c4ncc(C)cc34)cn2)cn1 [Compound P-3020, (6-Methoxy-pyridin-3-yl)-[5-(5-methyl-1H-pyrrolo[2,3-b]pyridin-3-ylmethyl)-pyrimidin-2-yl]-amine]
[1]
  IC50: < 10 nM
[2]
  IC50: < 10 nM

## Cc1ccc(Nc2ccc(C(=O)c3c[nH]c4ncc(Cl)cc34)c(F)n2)cn1 [Compound P-3044, (5-Chloro-1H-pyrrolo[2,3-b]pyridin-3-yl)-[2-fluoro-6-(6-methyl-pyridin-3-ylamino)-pyridin-3-yl]-methanone]
[1]
  IC50: < 1000 nM
[2]
  IC50: < 100 nM

## Cc1cnc2[nH]cc(Cc3ccc(Nc4ccc(C5CC5)nc4)nc3F)c2c1 [Compound P-3050, (6-Cyclopropyl-pyridin-3-yl)-[6-fluoro-5-(5-methyl-1H-pyrrolo[2,3-b]pyridin-3-ylmethyl)-pyridin-2-yl]-amine]
[1]
  IC50: < 100 nM
[2]
  IC50: < 100 nM

## CCOc1ccc(Nc2ccc(C(=O)c3c[nH]c4ncnc(OC)c34)c(F)n2)cn1 [Compound P-4024, [6-(6-Ethoxy-pyridin-3-ylamino)-2-fluoro-pyridin-3-yl]-(4-methoxy-7H-pyrrolo[2,3-d]pyrimidin-5-yl)-methanone]
[1]
  IC50: < 1000 nM
[2]
  IC50: < 100 nM

## Cc1cnc2[nH]cc(Cc3cnc(Nc4cc(C(F)(F)F)n[nH]4)nc3)c2c1 [Compound P-3037, [5-(5-Methyl-1H-pyrrolo[2,3-b]pyridin-3-ylmethyl)-pyrimidin-2-yl]-(5-trifluoromethyl-2H-pyrazol-3-yl)-amine]
[1]
  IC50: < 1000 nM
[2]
  IC50: > 1000 nM

## FC1(F)CCC(Nc2ncc(Cc3c[nH]c4ncc(Cl)cc34)cn2)CC1 [Compound P-3004]
[1]
  IC50: < 1000 nM
[2]
  IC50: < 100 nM

## CCOc1ccc(Nc2ccc(Cc3c[nH]c4ncnc(OCCOC)c34)c(F)n2)cn1 [Compound P-4008, (6-Ethoxy-pyridin-3-yl)-{6-fluoro-5-[4-(2-methoxy-ethoxy)-7H-pyrrolo[2,3-d]pyrimidin-5-ylmethyl]-pyridin-2-yl}-amine]
[1]
  IC50: < 1000 nM
[2]
  IC50: < 10 nM

## CCn1cc(Nc2ncc(Cc3c[nH]c4ncc(C)cc34)cn2)cn1 [Compound P-3036, (1-Ethyl-1H-pyrazol-4-yl)-[5-(5-methyl-1H-pyrrolo[2,3-b]pyridin-3-ylmethyl)-pyrimidin-2-yl]-amine]
[1]
  IC50: < 100 nM
[2]
  IC50: < 10 nM

## Cc1cnc2[nH]cc(Cc3cnc(Nc4cc(OC(C)C)n[nH]4)nc3)c2c1 [Compound P-3038, (5-Isopropoxy-2H-pyrazol-3-yl)-[5-(5-methyl-1H-pyrrolo[2,3-b]pyridin-3-ylmethyl)-pyrimidin-2-yl]-amine]
[1]
  IC50: < 1000 nM
[2]
  IC50: < 1000 nM

## CCOc1ncnc2[nH]cc(Cc3ccc(Nc4ccc(OC)nc4)nc3F)c12 [Compound P-4018, [5-(4-Ethoxy-7H-pyrrolo[2,3-d]pyrimidin-5-ylmethyl)-6-fluoro-pyridin-2-yl]-(6-methoxy-pyridin-3-yl)-amine]
[1]
  IC50: < 100 nM
[2]
  IC50: < 10 nM

## CCc1ccc(Nc2ccc(Cc3c[nH]c4ncnc(C)c34)c(F)n2)cn1 [Compound P-4009, (6-Ethyl-pyridin-3-yl)-[6-fluoro-5-(4-methyl-7H-pyrrolo[2,3-d]pyrimidin-5-ylmethyl)-pyridin-2-yl]-amine]
[1]
  IC50: < 100 nM
[2]
  IC50: < 10 nM
